Reference: patent US12703731B2, “Long-acting GLP-1 compound” (Gan & Lee Pharmaceuticals Co., Ltd., priority 2019, dated 2026)

Columns and labels:
db/db mice [1] = assay: Single-dose study of blood glucose, food and water intake on db/db mice (Example 15); type: in vivo; conditions: single s.c. 100 μg/kg
Protocol: Male db/db (BKS/Lepr) mice aged 8-9 weeks were housed in appropriately sized feeding cages in a barrier environment and had free access to standard food and purified water, with environmental conditions controlled at 40%-60% RH and 22-24° C. After an adaptation period of 1-2 weeks, the mice were used in the experiment.
Before the start of the experiment on the day, the mice were evaluated for baseline blood glucose at about 9:00 a.m. and weighed.
The GLP-1 derivatives were dissolved in the vehicle to an administration concentration of 20 μg/mL, and the administration was performed once by subcutaneous injection (s.c., 50 μL/10 g body weight) at back of the neck. The compound of Example 2 was administered at about 10:00 a.m. (time 0), and the blood glucose of the mice was evaluated 1 h, 2 h, 3 h, 6 h, 12 h, 24 h, 48 h and 72 h after the administration. The tail of each mouse was cleaned with an alcohol cotton ball, and blood drops were collected from the tail using a disposable blood collection needle and measured with a glucometer (Roche) and accompanying testing strips. Meanwhile, the food intake and water intake of the mice were monitored every day.
The dose-response curve of blood glucose versus time, the dose-response curve of food intake versus time, and the dose-response curve of water intake versus time were plotted for each single dose of GLP-1 derivative. […]

db/db mice [2] = assay: Single-dose pharmacodynamic study on db/db mice (Example 5); type: in vivo; conditions: single s.c. 100 μg/kg
Protocol: The title compounds of Examples 1-4 and Comparative Examples 1-4 (also known as GLP-1 derivatives) were tested in a single dose study on an obese mouse model (db/db mice) with type 2 diabetes (T2DM). The hypoglycemic drug effect of the GLP-1 derivatives was tested at a dose of 100 μg/kg.
Male db/db (BKS/Lepr) mice aged 8-9 weeks were housed in appropriately sized feeding cages in a barrier environment and had free access to standard food and purified water, with environmental conditions controlled at 40%-60% relative humidity (RH) and 22-24° C. After an adaptation period of 1-2 weeks, the mice were used in the experiment.
Before the start of the experiment on the day, the mice were evaluated for baseline blood glucose at about 9:30 a.m. and weighed. […]
The GLP-1 derivatives were dissolved in the vehicle to an administration concentration of 20 μg/mL, and the administration volume was 5 mL/kg (i.e., 50 μL/10 g body weight). […] The tail of each mouse was cleaned with an alcohol cotton ball, and blood drops were collected from the tail using a disposable blood collection needle and measured with a glucometer and accompanying testing strips (Roche). Food intake and body weight of each mouse were measured at 24 h, 48 h and 72 h after the administration. […]

Kkay mice = assay: Long-term pharmacodynamic study on Kkay mice (Example 17); type: in vivo; conditions: s.c. 100 and 300 μg/kg; dulaglutide 600 μg/kg; FIGS. 9a-9b
Protocol: Before the start of the experiment on the day, the mice were evaluated for baseline blood glucose at about 9:00 a.m. and weighed. […] The vehicle contained 14 mg/mL propylene glycol, 5.5 mg/mL phenol and 1.133 mg/mL disodium hydrogen phosphate, with a pH value of 7.4.
(time 0) at back of the neck once every 2 days for 16 consecutive times, the blood glucose of the mice was evaluated 3 h, 6 h, 1 day and 2 days after the first administration, and HbA1c was detected in an EDTA anticoagulation tube 48 h after the last administration.

human GLP-1 receptor = biological target: T1, human GLP-1 receptor (Homo sapiens, UniProt P43220); assay: GLP-1 receptor binding, displacement of 125I-GLP-1, low and high HSA; conditions: 2% HSA versus 0.005% HSA
T1 construct: host or cells: cell membrane preparation
T1 sequence (P43220 24-463): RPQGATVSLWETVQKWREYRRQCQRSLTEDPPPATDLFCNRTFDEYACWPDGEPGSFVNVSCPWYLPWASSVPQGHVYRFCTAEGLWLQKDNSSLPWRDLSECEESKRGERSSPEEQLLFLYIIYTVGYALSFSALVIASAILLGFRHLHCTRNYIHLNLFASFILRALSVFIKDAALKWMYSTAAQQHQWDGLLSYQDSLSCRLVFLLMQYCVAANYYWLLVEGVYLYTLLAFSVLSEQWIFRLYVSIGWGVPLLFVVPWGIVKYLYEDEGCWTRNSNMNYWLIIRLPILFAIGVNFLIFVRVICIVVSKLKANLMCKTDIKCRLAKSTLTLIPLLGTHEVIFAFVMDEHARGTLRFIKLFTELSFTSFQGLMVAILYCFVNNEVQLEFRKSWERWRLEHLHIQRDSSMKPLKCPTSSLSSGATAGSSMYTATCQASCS
Protocol: For a receptor binding test in the presence of low-concentration HSA (0.005% (w/v)), 50 μL of assay buffer was added to each well of the assay plate. For a receptor binding test in the presence of high-concentration HSA (2% (w/v)), 50 μL of 8% (w/v) albumin stock solution was added to each well of the assay plate. […] In the presence of 0.005% HSA, all test compounds and the reference control were diluted to 2 μM with assay buffer, and then all samples were diluted in 4-fold serial gradient dilutions for a total of 10 concentration gradients. […] 25 μL of test compounds or reference control at different concentrations were added to the appropriate wells of the assay plate, respectively. Cell membrane protein aliquots were thawed and diluted to their working concentration (40 μg/mL), and 50 μL of the cell membrane-containing solution was added to each well of the assay plate. […] The assay plate was incubated at room temperature for 1 h. After the incubation, the reaction solution was collected on a GF/C filter plate using a cell collector, washed 6 times with a washing buffer, and dried in a drying oven at 50° C. for 1 h. 50 μL of scintillation solution was added and blocked, and the values were read using Microbeta2. IC50 values were calculated by the nonlinear regression analysis in the GraphPad Prism software and reported in nM. […]

Substance | control of food intake and water intake compared to semaglutide (db/db mice [1]; db/db mice, FIGS. 7c-7d) | hypoglycemic effect on db/db mice compared to semaglutide (db/db mice [1]; same dose, FIGS. 7a-7b) | effective duration of action of hypoglycemic effect on db/db mice compared to semaglutide (db/db mice [2]) | hypoglycemic effect on db/db mice compared to semaglutide (db/db mice [2]; FIGS. 2a-2b) | hypoglycemic effect on Kkay mice compared to dulaglutide (Kkay mice) | Ratio [(IC50/nM) high-concentration HSA]/[(IC50/nM) low-concentration HSA] (human GLP-1 receptor)
N-ε^26-[2-(2-[2-(4-[19-carboxynonadecanoylamino]-4(S)-carboxybutanoylamino)ethoxy]ethoxy)acetyl][Gly8, Arg34]GLP-1-(7-37) Peptide [Compound 2] | its effect is superior to semaglutide | superior hypoglycemic effect | longer than that of semaglutide | superior hypoglycemic effect to semaglutide | significantly superior hypoglycemic effect on Kkay mice to dulaglutide | –
semaglutide | – | – | – | – | – | 813
